Columns and labels:
HCV = details: cited from earlier work

Row | Compound | response rate (measured by major fall in HCV levels) (HCV; administered parenterally for up to 6 months) [%] | virologic response (hepatitis C; Example A: lower doses of ribavirin (less than 400 mg/day or less than 6 mg/kg/day), slow-release, with 3 million IU Intron A once weekly) | therapeutic response versus conventional or systemic doses (hepatitis C; Example B: higher doses of ribavirin (600 mg/day), slow-release, with 3 million IU Intron A once weekly) | side effects versus conventional or systemic doses (hepatitis C; human, in vivo) | effect on HCV viral load or hepatic histology (HCV; given as monotherapy, orally)
1 | interferon alfa 2b | ~25 |  |  |  | 
2 | NC(=O)c1ncn([C@@H]2O[C@H](CO)[C@@H](O)[C@H]2O)n1 [Ribavirin, ribavirin] |  | sustained virologic response | more complete or faster therapeutic response | lower side effects | no effect

Source: patent US20070202078A1, “Method Of Treating Viral Infections” (priority 2003, published 2007)
